# Measurements published in ChEMBL document CHEMBL1201862, “PubChem BioAssay data set” (2004).
# The source made the active and inactive calls.
# How the values were obtained:
# [1] = blockers of bursicon-stimulated LGR2 cAMP reporter – cell-based, HEK293, CRE-luciferase reporter, cherry pick, set 2, dose response (AID 743343); assay type: functional;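 note: transfected cells were stimulated with diluted bursicon conditioned medium after compound addition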
# [2] = viability loss in HEK293 cells – cell-based, plate reader, cherry-picked samples, cytotoxicity control, dose response (AID 743446); assay type: functional
# [3] = A549 cell cytotoxicity, dose response, cytotoxicity control, plate reader, cherry-pick, antagonist series (AID 743412); assay type: functional, cell-based
# [4] = blockade of melanocortin 4 receptor signaling – cell-based, plate reader, cherry pick, counter-screen for LGR2 antagonist project, dose response (AID 743444); assay type: functional;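 note: transfected HEK 293 cells stimulated with alpha-MSH peptide; potency of inhibitors of the alpha-MSH evoked signal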
# [5] = toxicity toward HepG2 liver cells – cell-based, plate reader, cherry-pick, antagonist series, cytotoxicity control, dose response (AID 743416); assay type: functional
# Vero [6] = assay: viability loss in Vero cells – cell-based, plate reader, cherry-pick samples, cytotoxicity control, dose response (AID 687020); assay type: functional; details: Chlorocebus sabaeus
# [7] = target: T1, Heat shock factor protein 1 (Mus musculus, UniProt P38532); assay: decrease of HSF1-responsive luciferase luminescence – cell-based, NIH3T3, dose retest, confirmation (AID 2382); assay type: functional;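 note: NIH3T3 fibroblasts with HSF1-driven luciferase reporter stressed by proteasome inhibitor MG132; luminescence from HSF1-driven luciferase expression after 8 hours of MG132 stress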
# T1 sequence (P38532 whole entry): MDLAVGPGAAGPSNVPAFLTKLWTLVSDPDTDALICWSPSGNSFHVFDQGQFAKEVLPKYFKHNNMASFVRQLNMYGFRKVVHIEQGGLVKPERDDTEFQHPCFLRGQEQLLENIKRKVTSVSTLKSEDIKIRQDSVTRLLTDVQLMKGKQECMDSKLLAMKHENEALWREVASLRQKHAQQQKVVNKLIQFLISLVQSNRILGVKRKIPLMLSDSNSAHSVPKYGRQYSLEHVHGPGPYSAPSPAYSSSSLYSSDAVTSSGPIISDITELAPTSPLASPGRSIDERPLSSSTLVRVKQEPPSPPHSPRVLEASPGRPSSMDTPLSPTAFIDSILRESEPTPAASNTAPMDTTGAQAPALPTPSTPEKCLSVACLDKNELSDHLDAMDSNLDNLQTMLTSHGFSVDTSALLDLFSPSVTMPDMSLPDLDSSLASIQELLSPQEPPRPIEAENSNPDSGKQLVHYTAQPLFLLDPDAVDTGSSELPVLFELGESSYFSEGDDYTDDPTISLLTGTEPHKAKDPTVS
# [8] = off-target signal loss in HeLa-CEM21 co-culture – HeLa F-luc CTL cells, cherry-picked, counter-screen for HIV-1 Env fusion inhibitor project, dose response (AID 652040); assay type: functional, cell-based;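 note: potency for signal decrease marking cytotoxic or nonspecific inhibition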
# [9] = blockers of HIV-1 ZM109 envelope-driven cell-cell fusion – HeLa effector, CEM target cells, luciferase, cherry-pick, dose response (AID 652058); assay type: functional, cell-based;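 note: luciferase signal from HIV-1 Env mediated cell-cell fusion of effector and target cells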
# [10] = target: T2, Sentrin-specific protease 1 (Homo sapiens, UniProt Q9P0U3); assay: SENP1 catalytic domain blockers, concentration series – biochemical, kinetic FRET, dose response (AID 651697); assay type: functional; details: read-out: IC50_Mean
# T2 sequence (Q9P0U3 whole entry): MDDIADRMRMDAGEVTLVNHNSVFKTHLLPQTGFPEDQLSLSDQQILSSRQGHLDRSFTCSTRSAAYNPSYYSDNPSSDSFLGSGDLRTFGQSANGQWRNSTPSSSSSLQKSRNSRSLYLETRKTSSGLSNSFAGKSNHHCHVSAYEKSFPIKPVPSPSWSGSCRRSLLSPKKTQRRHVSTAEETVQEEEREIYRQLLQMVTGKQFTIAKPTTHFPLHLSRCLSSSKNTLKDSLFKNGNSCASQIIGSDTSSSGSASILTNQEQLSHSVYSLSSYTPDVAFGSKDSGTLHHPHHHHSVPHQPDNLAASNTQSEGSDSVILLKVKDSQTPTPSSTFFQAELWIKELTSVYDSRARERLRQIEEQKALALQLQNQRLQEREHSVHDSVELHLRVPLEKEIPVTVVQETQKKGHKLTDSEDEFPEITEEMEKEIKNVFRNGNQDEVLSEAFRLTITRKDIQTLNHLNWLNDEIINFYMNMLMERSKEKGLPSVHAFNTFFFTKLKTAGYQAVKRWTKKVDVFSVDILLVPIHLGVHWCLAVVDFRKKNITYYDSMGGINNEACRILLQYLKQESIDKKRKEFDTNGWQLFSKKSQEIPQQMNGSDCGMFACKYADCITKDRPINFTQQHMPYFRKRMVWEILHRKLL
# [11] = target: T2, Sentrin-specific protease 1; assay: Dose response confirmation of small molecule inhibitors of the catalytic domain of the SUMO protease, SENP1 in a FRET assay.; assay type: functional; details: read-out: IC50_Mean
# [12] = target: Dual specificity tyrosine-phosphorylation-regulated kinase 1A (Rattus norvegicus, UniProt Q63470); assay type: biochemical, Homo sapiens
# Genome polyprotein = Genome polyprotein (dengue virus type 2, UniProt P29990); assay: flavivirus cap methylation enzyme inhibition – biochemical, confirmation dose response, primary screen (AID 588689); assay type: functional
# Chain of Genome polyprotein (P29990 2492-3391 limits assumed): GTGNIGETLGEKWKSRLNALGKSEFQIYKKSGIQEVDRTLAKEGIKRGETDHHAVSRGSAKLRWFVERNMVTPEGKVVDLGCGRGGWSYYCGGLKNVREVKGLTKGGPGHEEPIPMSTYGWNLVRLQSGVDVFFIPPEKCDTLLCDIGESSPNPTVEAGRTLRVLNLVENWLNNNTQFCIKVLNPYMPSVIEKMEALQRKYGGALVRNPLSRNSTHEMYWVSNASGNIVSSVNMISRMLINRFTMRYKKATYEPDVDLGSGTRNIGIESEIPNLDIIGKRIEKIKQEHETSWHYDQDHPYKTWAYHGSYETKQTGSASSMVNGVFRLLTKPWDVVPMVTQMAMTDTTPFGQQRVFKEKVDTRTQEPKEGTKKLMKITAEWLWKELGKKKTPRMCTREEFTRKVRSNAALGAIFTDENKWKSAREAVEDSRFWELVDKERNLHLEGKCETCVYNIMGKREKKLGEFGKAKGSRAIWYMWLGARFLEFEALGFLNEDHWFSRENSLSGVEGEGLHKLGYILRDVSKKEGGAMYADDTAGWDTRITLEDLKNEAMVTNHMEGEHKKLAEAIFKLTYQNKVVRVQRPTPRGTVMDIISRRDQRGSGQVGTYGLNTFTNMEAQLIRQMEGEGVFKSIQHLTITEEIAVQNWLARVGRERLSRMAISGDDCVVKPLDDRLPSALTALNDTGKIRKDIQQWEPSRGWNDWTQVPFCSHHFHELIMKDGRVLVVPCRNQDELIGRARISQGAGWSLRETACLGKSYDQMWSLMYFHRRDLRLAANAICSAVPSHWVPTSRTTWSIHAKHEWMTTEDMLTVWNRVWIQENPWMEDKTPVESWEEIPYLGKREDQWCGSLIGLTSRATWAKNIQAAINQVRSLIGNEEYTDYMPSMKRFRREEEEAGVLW
# [13] = target: 1-phosphatidylinositol 4,5-bisphosphate phosphodiesterase gamma-1 (Homo sapiens, UniProt P19174); assay: Counterscreen for inhibitors of phospholipase C isozymes (PLC-B3): Fluorescence-based biochemical high throughput dose response assay to identify inhibitors of phospholipase C isozymes (PLC-gamma1).
# Chain of 1-phosphatidylinositol 4,5-bisphosphate phosphodiesterase gamma-1 (P19174 whole entry): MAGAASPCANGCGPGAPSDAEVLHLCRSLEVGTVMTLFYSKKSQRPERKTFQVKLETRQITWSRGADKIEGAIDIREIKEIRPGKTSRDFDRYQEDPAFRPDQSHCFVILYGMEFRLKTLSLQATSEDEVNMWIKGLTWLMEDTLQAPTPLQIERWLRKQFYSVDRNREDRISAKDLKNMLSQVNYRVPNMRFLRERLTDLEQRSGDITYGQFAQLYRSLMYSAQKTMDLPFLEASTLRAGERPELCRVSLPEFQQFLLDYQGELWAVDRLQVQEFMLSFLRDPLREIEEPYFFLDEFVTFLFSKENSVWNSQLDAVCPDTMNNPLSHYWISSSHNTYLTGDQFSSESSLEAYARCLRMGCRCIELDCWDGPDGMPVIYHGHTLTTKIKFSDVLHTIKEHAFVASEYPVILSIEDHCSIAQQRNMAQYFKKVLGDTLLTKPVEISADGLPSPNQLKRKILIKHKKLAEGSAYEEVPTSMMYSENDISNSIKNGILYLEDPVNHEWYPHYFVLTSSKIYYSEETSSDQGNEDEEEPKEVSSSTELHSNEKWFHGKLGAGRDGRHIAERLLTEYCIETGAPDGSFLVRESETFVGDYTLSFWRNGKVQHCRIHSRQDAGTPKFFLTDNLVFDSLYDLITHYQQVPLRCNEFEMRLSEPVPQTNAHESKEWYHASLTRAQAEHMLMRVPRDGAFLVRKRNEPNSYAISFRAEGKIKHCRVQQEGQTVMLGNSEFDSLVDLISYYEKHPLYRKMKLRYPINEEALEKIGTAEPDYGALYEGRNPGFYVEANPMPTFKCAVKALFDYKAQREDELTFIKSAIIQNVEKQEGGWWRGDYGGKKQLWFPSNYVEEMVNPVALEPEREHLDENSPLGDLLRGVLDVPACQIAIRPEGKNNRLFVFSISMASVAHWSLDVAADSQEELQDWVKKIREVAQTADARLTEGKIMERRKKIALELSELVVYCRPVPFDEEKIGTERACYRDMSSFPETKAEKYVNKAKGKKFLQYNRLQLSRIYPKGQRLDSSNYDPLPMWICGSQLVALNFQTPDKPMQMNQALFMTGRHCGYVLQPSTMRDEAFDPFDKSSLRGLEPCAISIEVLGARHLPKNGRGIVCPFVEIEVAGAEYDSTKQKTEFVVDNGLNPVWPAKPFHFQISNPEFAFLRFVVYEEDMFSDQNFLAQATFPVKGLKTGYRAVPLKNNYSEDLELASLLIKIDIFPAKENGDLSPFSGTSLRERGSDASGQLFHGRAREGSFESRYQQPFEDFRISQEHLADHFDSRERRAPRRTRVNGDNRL
# [14] = target: 1-phosphatidylinositol 4,5-bisphosphate phosphodiesterase beta-3 (Homo sapiens, UniProt Q01970); assay: Fluorescence-based biochemical high throughput dose response assay to identify inhibitors of phospholipase C isozymes (PLC-B3).
# Chain of 1-phosphatidylinositol 4,5-bisphosphate phosphodiesterase beta-3 (Q01970 whole entry): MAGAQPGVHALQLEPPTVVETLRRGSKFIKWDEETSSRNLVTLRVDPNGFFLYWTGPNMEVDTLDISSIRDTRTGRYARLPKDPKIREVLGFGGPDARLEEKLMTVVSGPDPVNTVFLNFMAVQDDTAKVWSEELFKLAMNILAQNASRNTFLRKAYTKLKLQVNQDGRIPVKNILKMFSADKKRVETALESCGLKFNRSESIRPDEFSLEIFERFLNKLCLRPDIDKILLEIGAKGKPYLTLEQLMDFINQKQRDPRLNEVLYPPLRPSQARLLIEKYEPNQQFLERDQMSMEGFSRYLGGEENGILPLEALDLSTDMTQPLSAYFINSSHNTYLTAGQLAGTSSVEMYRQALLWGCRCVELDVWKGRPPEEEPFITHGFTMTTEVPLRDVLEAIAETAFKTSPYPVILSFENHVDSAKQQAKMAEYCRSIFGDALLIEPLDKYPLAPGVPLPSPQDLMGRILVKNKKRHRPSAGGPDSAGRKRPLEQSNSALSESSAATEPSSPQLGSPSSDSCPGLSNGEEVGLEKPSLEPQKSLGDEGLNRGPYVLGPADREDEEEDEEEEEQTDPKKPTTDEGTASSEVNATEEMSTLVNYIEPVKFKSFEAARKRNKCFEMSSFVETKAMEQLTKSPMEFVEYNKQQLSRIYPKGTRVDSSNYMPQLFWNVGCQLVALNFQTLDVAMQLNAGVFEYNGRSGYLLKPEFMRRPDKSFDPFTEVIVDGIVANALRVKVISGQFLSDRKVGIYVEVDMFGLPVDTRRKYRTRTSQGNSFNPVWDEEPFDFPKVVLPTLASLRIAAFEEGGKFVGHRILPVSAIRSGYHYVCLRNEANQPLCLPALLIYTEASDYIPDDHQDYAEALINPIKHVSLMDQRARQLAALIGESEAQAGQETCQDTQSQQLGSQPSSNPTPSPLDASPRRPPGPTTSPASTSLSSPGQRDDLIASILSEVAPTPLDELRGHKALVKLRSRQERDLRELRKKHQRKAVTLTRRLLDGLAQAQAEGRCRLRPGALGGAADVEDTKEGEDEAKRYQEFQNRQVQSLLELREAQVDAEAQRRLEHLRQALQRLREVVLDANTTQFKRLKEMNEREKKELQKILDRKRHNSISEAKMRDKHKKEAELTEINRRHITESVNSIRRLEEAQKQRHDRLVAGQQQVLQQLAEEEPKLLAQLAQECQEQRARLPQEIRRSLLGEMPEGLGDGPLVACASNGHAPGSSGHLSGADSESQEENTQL
# Leucine aminopeptidase = target: T3, Leucine aminopeptidase (Plasmodium falciparum 3D7, UniProt Q8IL11); assay: P. falciparum M17LAP inhibitors, primary screen, biochemical, fluorogenic H-Leu-NHMec substrate, 1536-well (AID 1619); assay type: functional
# T3 sequence (Q8IL11 whole entry): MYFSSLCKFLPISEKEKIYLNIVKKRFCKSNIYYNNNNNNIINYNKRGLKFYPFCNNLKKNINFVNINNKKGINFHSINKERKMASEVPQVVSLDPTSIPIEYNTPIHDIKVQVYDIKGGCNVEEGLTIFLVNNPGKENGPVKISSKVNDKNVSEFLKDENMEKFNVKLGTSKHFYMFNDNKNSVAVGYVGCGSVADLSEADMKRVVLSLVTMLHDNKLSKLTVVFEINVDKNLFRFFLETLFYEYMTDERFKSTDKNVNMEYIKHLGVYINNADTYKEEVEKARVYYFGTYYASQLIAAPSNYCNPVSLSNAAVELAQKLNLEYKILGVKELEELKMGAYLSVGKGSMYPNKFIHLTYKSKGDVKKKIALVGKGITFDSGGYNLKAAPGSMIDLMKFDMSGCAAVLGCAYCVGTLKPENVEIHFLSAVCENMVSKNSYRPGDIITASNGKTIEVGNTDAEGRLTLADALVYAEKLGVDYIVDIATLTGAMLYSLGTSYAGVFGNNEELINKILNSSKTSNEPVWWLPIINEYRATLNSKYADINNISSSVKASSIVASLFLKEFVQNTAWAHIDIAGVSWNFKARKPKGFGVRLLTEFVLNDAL
# Vero [15] = assay: viability of Vero cells under compound – cytotoxicity control for flavivirus capping enzyme inhibitors (AID 588742); assay type: functional; details: Chlorocebus sabaeus
# [16] = OVCAR-3 cell viability loss – plate reader, dry powder samples, PAX8 inhibitor project, dose response (AID 743044); assay type: functional, cell-based
# Paired box protein Pax-8 = Paired box protein Pax-8 (Homo sapiens, UniProt Q06710); assay: PAX8 transcriptional activity inhibition in RMG-I – RMG-I cells, luciferase, cherry-pick, dose response (AID 687027); assay type: functional, cell-based;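 note: luciferase reporter driven by Pax8 target thyroperoxidase promoter measured by SteadyGlo luminescence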
# Chain of Paired box protein Pax-8 (Q06710 whole entry): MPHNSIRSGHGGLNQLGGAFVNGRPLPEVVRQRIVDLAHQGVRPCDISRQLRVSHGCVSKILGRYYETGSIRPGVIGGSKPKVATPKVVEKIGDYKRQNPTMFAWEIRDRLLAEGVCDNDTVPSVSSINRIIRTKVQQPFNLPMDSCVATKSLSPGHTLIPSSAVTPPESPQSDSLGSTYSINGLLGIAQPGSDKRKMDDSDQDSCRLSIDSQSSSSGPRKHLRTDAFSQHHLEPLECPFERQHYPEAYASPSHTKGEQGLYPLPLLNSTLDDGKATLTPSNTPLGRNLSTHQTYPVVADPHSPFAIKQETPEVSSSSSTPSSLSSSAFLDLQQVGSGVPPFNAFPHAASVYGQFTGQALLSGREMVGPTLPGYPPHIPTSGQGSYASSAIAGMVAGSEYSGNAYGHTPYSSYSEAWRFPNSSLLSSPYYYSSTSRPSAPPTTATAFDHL
# [17] = general cell-killing toxicity readout – plate reader, dry powder samples, cytotoxicity control for PAX8 inhibitor project, dose response (AID 743021); assay type: functional, cell-based
# [18] = reduction of Shn3 3'UTR-driven luciferase in osteoblasts – cell-based, Clone20 osteoblasts, firefly luciferase, cherry-picked, dose response (AID 624132); assay type: functional;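 note: firefly luciferase luminescence from reporter carrying the Shn3 3'UTR in osteoblasts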
# [19] = non-specific 3'UTR reporter inhibition in Clone20-Shn3RL – cell-based, Renilla luciferase, cherry-picked, counter-screen for Shn3 inhibitor project, dose response (AID 624133); assay type: functional
# [20] = potency of ADAM10 substrate cleavage blockers – biochemical, QFRET, dose response (AID 743254);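 note: ADAM10 enzyme with the DM2 quenched FRET peptide as substrate; EDANS fluorescence gain as the protease cuts the substrate; inhibitor potency against ADAM10 proteolytic activity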
# [21] = target: Disintegrin and metalloproteinase domain-containing protein 17 (Homo sapiens, UniProt P78536); assay: inhibition of ADAM17 substrate cleavage – biochemical, quenched FRET substrate, counter-screen for ADAM10 exosite inhibitor project, dose response (AID 743253)
# Chain of Disintegrin and metalloproteinase domain-containing protein 17 (P78536 whole entry, the tested form may be a part): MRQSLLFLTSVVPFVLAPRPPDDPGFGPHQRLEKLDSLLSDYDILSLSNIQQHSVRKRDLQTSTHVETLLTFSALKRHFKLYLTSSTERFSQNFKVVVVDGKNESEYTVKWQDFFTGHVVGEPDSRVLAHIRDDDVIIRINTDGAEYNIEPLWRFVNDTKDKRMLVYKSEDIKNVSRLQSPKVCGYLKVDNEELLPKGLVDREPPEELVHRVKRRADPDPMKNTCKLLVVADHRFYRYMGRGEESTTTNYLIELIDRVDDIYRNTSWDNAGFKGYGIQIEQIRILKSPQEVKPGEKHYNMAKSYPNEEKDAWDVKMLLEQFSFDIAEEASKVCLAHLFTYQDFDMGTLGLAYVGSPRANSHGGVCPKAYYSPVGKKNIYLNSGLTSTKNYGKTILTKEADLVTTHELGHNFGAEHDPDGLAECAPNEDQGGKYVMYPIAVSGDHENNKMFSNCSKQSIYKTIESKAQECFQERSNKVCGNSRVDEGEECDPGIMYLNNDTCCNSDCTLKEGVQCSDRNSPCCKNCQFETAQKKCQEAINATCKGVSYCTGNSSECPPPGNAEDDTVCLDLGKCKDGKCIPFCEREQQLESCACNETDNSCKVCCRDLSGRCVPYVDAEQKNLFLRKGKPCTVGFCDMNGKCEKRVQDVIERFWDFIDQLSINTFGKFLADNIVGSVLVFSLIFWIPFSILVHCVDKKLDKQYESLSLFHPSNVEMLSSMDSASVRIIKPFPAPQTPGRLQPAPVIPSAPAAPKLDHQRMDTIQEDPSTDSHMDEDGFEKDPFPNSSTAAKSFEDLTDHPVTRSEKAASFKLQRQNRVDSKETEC
smiles,measurement,setting,value
CCCCc1c(-c2cccc(OC)c2)ncn1CCc1ccccc1OC,AC50,[1],16.3 µM (active)
same,AC50,[2],29 µM (active)
same,AC50,[3],19.2 µM (active)
same,AC50,[4],12.9 µM (active)
same,AC50,[5],15.1 µM (active)
CC1(C)CC(NC(=O)COc2ccccc2Cl)CC(C)(C)N1,AC50,Vero [6],33.7 µM (active)
same,EC50,[7],2.65 µM (active)
Cc1ccc2c(c1)C(=C(C#N)C#N)CCN2,AC50,[8],42.3 µM (active)
same,AC50,[9],2 µM (active)
same,IC50,[10],20.1 µM (inactive)
same,IC50,[11],11 µM (active)
same,AC50,[12],5.69 µM (active)
CCCCn1nnnc1C(CCc1ccccc1)N1CCC(n2c(O)nc3ccccc32)CC1 (stereo not drawn),AC50,[1],20.1 µM (active)
same,AC50,[2],19.8 µM (active)
same,AC50,[3],19 µM (active)
same,AC50,[4],7.55 µM (active)
same,AC50,[5],> 52 µM (inactive)
O=Cc1cc(N=Nc2cccc(C(=O)O)c2)ccc1O,IC50,Genome polyprotein,99.6 µM (active)
same,IC50,[13],23.7 µM (inactive)
same,IC50,[14],> 122 µM (inactive)
same,IC50,Leucine aminopeptidase,51.5 µM (active)
same,CC50,Vero [15],> 40 µM (active)
CSc1ccc(S(=O)(=O)NC2CC3CCC2C3)cc1 (stereo not drawn),AC50,Vero [6],16.8 µM (active)
COc1ccc(S(=O)(=O)N(C)C[C@@H]2OCCCC[C@H](C)Oc3ccc(NS(=O)(=O)c4ccc(Cl)cc4)cc3C(=O)N([C@H](C)CO)C[C@@H]2C)cc1,AC50,[16],26.9 µM (active)
same,AC50,Paired box protein Pax-8,4.8 µM (active)
same,AC50,[17],58.4 µM (active)
C=CCC[C@H](Cc1ccc(F)cc1)C(=O)OC[C@H](Cc1c[nH]c2ccccc12)NC(=O)[C@H](CC=C)CC(=O)N(CCO)Cc1ccccc1,AC50,[18],11.7 µM (active)
same,AC50,[19],20.1 µM (active)
same,IC50,[20],6.93 µM (active)
same,AC50,Paired box protein Pax-8,12.9 µM (active)
same,IC50,[21],> 69.5 µM (inactive)
CC(=O)N1C[C@@H](c2c[nH]c3ccccc23)C=C[C@H]1C(=O)NS(=O)(=O)c1ccc(C)cc1,IC50,[13],> 4.54 µM (active)
same,IC50,[14],> 122 µM (inactive)
